Where a name gives a salt, the structure may show the parent alone.
How the values were obtained:
Assay in all cases: MIC, NCCLS broth microdilution
Assay type in all cases: cell-based
[1] = system: Pseudomonas aeruginosa 1973E; settings: for MIC of antibiotic at fixed inhibitor concentration (4 mg/L): MIC of antibiotic compound 1 with the labelled bridged monobactam of formula II and clavulanate, 4 mg/L each
Experimental: Antimicrobial activity of the compounds and of their combinations was determined against a selection of organisms according to the standard procedures described by the National Committee for Clinical Laboratory Standards (National Committee for Clinical Laboratory. Standards (2000). Methods for Dilution Antimicrobial Susceptibility Tests for Bacteria That Grow Aerobically-Fifth Edition: Approved Standard M7-A5. NCCLS, Wayne, Pa., USA).
In all cases the final concentration of DMSO incubated with the bacteria is less than or equal to 1%. […] Plates were incubated overnight at an appropriate temperature (30° C. or 37° C.) and optical densities assessed by eye. The MIC value is defined as the lowest compound concentration completely inhibiting visible growth of the test organism. When combinations between compounds of formula I with compounds of formula II and are evaluated the compounds of formula I are tested in dilution series as described above while the compounds of formula II and III-XIII were present in all wells at a constant concentration of 4 μg/mL each.

[2] = system: Klebsiella pneumoniae CF104; settings: for MIC of antibiotic at fixed inhibitor concentration (4 mg/L): MIC of antibiotic compound 1 with the labelled bridged monobactam of formula II and clavulanate, 4 mg/L each
[3] = system: Pseudomonas aeruginosa MK1184; settings: for MIC of antibiotic at fixed inhibitor concentration (4 mg/L): MIC of antibiotic compound 1 with the labelled bridged monobactam of formula II and clavulanate, 4 mg/L each
Enterobacter cloacae P99 = settings: for MIC of antibiotic at fixed inhibitor concentration (4 mg/L): MIC of antibiotic compound 1 with the labelled bridged monobactam of formula II and clavulanate, 4 mg/L each
Acinetobacter sp. J2 = settings: for MIC of antibiotic at fixed inhibitor concentration (4 mg/L): Acinetobacter sp. J2, MIC of antibiotic compound 1 with the labelled bridged monobactam of formula II and clavulanate, 4 mg/L each
[4] = system: Stenotrophomonas malthophilia 1AC736; settings: for MIC of antibiotic at fixed inhibitor concentration (4 mg/L): Stenotrophomonas malthophilia 1AC736, MIC of antibiotic compound 1 with the labelled bridged monobactam of formula II and clavulanate, 4 mg/L each
Serratia marcescens S6 = settings: for MIC of antibiotic at fixed inhibitor concentration (4 mg/L): MIC of antibiotic compound 1 with the labelled bridged monobactam of formula II and clavulanate, 4 mg/L each

| SMILES | MIC of antibiotic at fixed inhibitor concentration (4 mg/L) [1] | MIC of antibiotic at fixed inhibitor concentration (4 mg/L) [2] | MIC of antibiotic at fixed inhibitor concentration (4 mg/L) [3] | MIC of antibiotic at fixed inhibitor concentration (4 mg/L) (Enterobacter cloacae P99) | MIC of antibiotic at fixed inhibitor concentration (4 mg/L) (Acinetobacter sp. J2) | MIC of antibiotic at fixed inhibitor concentration (4 mg/L) [4] | MIC of antibiotic at fixed inhibitor concentration (4 mg/L) (Serratia marcescens S6) | MIC of antibiotic at fixed inhibitor concentration of 4 mg/L ([1]; with sulbactam) | MIC of antibiotic at fixed inhibitor concentration of 4 mg/L ([2]; with sulbactam) | MIC of antibiotic at fixed inhibitor concentration of 4 mg/L ([3]; with sulbactam) | MIC of antibiotic at fixed inhibitor concentration of 4 mg/L (Enterobacter cloacae P99; with sulbactam) | MIC of antibiotic at fixed inhibitor concentration of 4 mg/L (Acinetobacter sp. J2; Acinetobacter baumannii J2, with sulbactam) | MIC of antibiotic at fixed inhibitor concentration of 4 mg/L ([4]; Stenotrophomonas maltophilia 1AC736, with sulbactam) | MIC of antibiotic at fixed inhibitor concentration of 4 mg/L (Serratia marcescens S6; with sulbactam) |
| --- | --- | --- | --- | --- | --- | --- | --- | --- | --- | --- | --- | --- | --- | --- |
| CNC(=O)c1ccc[n+](CC(=O)N2CC[C@@H]3[C@H]2C(=O)N3S(=O)(=O)[O-])c1 [Compound 101, (1S,5R)-2-{2-[3-(N-methylcarbamoyl)pyridinium]acetyl}-7-oxo-2,6-diazabicyclo[3.2.0]heptane-6-sulfonate, inner salt] | 4 µg/mL | 2 µg/mL | 8 µg/mL | 32 µg/mL | >32 µg/mL | 0.125 µg/mL | 0.5 µg/mL |  |  |  |  |  |  |  |
| CC1(C)S[C@@H]2[C@H](NC(=O)[C@H](N)c3ccccc3)C(=O)N2[C@H]1C(=O)O [Ampicillin, ampicillin, reference compound] |  |  |  |  |  |  |  | >32 µg/mL | >32 µg/mL | >32 µg/mL | >32 µg/mL | 32 µg/mL | 32 µg/mL | >32 µg/mL |
| O=C(C[n+]1cccc(Cc2ccccc2)c1)N1CC[C@@H]2[C@H]1C(=O)N2S(=O)(=O)[O-] [Compound 123, (1S,5R)-7-oxo-2-{2-[3-benzylpyridinium]acetyl}-2,6-diazabicyclo[3.2.0]heptane-6-sulfonate, inner salt] | 4 µg/mL | 0.125 µg/mL | 32 µg/mL | 32 µg/mL | >32 µg/mL | 0.125 µg/mL | 0.25 µg/mL |  |  |  |  |  |  |  |
| Cn1nnnc1SCC(=O)N1CC[C@@H]2[C@H]1C(=O)N2S(=O)(=O)[O-].[Na+] [Compound 206] | 4 µg/mL | 0.25 µg/mL | >32 µg/mL | 8 µg/mL | 4 µg/mL | 0.125 µg/mL | 4 µg/mL |  |  |  |  |  |  |  |
| O=C(N[C@@H]1CCNC1)c1ccc[n+](CC(=O)N2CC[C@@H]3[C@H]2C(=O)N3S(=O)(=O)[O-])c1 [Compound 125, 2-(2-{3-[N-((3R)pyrrolidin-3-yl)carbamoyl]pyridinium}acetyl)(1S,5R)-7-oxo-2,6-diazabicyclo[3.2.0]heptane-6-sulfonate, inner salt] | 8 µg/mL | <0.06 µg/mL | 16 µg/mL | 32 µg/mL | 4 µg/mL | 0.125 µg/mL | 0.5 µg/mL |  |  |  |  |  |  |  |
| O=C(NCc1ccccc1)N1CC[C@@H]2[C@H]1C(=O)N2S(=O)(=O)[O-].[Na+] [Compound 302] | 4 µg/mL | 2 µg/mL | >32 µg/mL | 32 µg/mL | >32 µg/mL | 0.125 µg/mL | 0.25 µg/mL |  |  |  |  |  |  |  |
